Data from ChEMBL document CHEMBL1687697 (ACS Med Chem Lett, 2010).
Activity calls are given as the source filed them. No cut-off for these calls is given here.

Experiments:
[1] = molecular target: Signal transducer and activator of transcription 3 (Homo sapiens) (UniProt P40763); assay: Inhibition of STAT3 in human HeLa cells at 5 uM after 24 hrs by luciferase reporter gene assay; assay type: cell-based
[2] = molecular target: Signal transducer and activator of transcription 3 (Homo sapiens) (UniProt P40763); assay: Inhibition of STAT3 phosphorylation at Tyr705 in human DU145 cells after 24 hrs by Western blot analysis; assay type: cell-based; details: DU-145
[3] = molecular target: Signal transducer and activator of transcription 3 (Homo sapiens) (UniProt P40763); assay: Inhibition of STAT3 phosphorylation Ser727 in human DU145 cells after 24 hrs by Western blot analysis; assay type: cell-based; details: DU-145
[4] = molecular target: Signal transducer and activator of transcription 1-alpha/beta (Homo sapiens) (UniProt P42224); assay: Inhibition of STAT1 phosphorylation at Tyr701 after 2 hrs by Western blot analysis
[5] = molecular target: Signal transducer and activator of transcription 5A (Homo sapiens) (UniProt P42229); assay: Inhibition of STAT5 phosphorylation at Tyr694 after 2 hrs by Western blot analysis
[6] = system: DU-145; assay: Effect on JAK1 protein level in human DU145 cells at 0.1 to 2 uM after 2 hrs by Western blot analysis; assay type: functional, cell-based
[7] = system: DU-145; assay: Effect on JAK1 protein level in human DU145 cells at 0.1 to 2 uM after 24 hrs by Western blot analysis; assay type: functional, cell-based
[8] = system: DU-145; assay: Effect on phosphorylated JAK1 protein level in human DU145 cells at 0.1 to 2 uM after 2 hrs by Western blot analysis; assay type: functional, cell-based
[9] = system: DU-145; assay: Effect on phosphorylated JAK1 protein level in human DU145 cells at 0.1 to 2 uM after 24 hrs by Western blot analysis; assay type: functional, cell-based
[10] = system: DU-145; assay: Effect on JAK2 protein level in human DU145 cells at 0.1 to 2 uM after 2 hrs by Western blot analysis; assay type: functional, cell-based
[11] = system: DU-145; assay: Effect on JAK2 protein level in human DU145 cells at 0.1 to 2 uM after 24 hrs by Western blot analysis; assay type: functional, cell-based
[12] = system: DU-145; assay: Effect on phosphorylated-JAK2 protein level in human DU145 cells at 0.1 to 2 uM after 2 hrs by Western blot analysis; assay type: functional, cell-based
[13] = system: DU-145; assay: Effect on phosphorylated-JAK2 protein level in human DU145 cells at 0.1 to 2 uM after 24 hrs by Western blot analysis; assay type: functional, cell-based
[14] = system: DU-145; assay: Effect on Src protein level in human DU145 cells at 0.1 to 2 uM after 2 hrs by Western blot analysis; assay type: functional, cell-based
[15] = system: DU-145; assay: Effect on Src protein level in human DU145 cells at 0.1 to 2 uM after 24 hrs by Western blot analysis; assay type: functional, cell-based
[16] = system: DU-145; assay: Effect on Tyr416 phosphorylated-Src protein level in human DU145 cells at 0.1 to 2 uM after 2 hrs by Western blot analysis; assay type: functional, cell-based
[17] = system: DU-145; assay: Effect on Tyr416 phosphorylated-Src protein level in human DU145 cells at 0.1 to 2 uM after 24 hrs by Western blot analysis; assay type: functional, cell-based
[18] = system: DU-145; assay: Effect on […] phosphorylated-Src protein level in human DU145 cells at 0.1 to 2 uM after 2 hrs by Western blot analysis; assay type: functional, cell-based
[19] = system: DU-145; assay: Effect on Tyr527 phosphorylated-Src protein level in human DU145 cells at 0.1 to 2 uM after 24 hrs by Western blot analysis; assay type: functional, cell-based
[20] = molecular target: Signal transducer and activator of transcription 3 (Homo sapiens) (UniProt P40763); assay: Inhibition of STAT3 nuclear translocation in EGF stimulated human DU145 cells at 1 uM administered before 100 ng/ml EGF stimulation measured after 2 hrs by confocal laser microscopy; assay type: cell-based; details: DU-145
[21] = molecular target: Signal transducer and activator of transcription 3 (Homo sapiens) (UniProt P40763); assay: Inhibition of STAT3 interaction with DNA binding site in human DU145 cells at 05 to 10 uM after 2 hrs by EMSA; assay type: cell-based; details: DU-145
[22] = system: DU-145; assay: Decrease in cyclin D1 protein level in human DU145 cells at 0.1 to 2 uM after 2 hrs by Western blot analysis; assay type: functional, cell-based
[23] = system: DU-145; assay: Decrease in c-Myc protein level in human DU145 cells at 0.1 to 2 uM after 2 hrs by Western blot analysis; assay type: functional, cell-based
[24] = system: DU-145; assay: Decrease in Bcl-Xl protein level in human DU145 cells at 0.1 to 2 uM after 2 hrs by Western blot analysis; assay type: functional, cell-based
[25] = system: DU-145; assay: Downregulation of Mcl-1 protein in human DU145 cells at 0.1 to 2 uM after 2 hrs by Western blot analysis; assay type: functional, cell-based
[26] = system: HeLa; assay: Antiproliferative activity against human HeLa cells after 72 hrs by MTT assay; assay type: functional, cell-based
[27] = system: A549; assay: Antiproliferative activity against human A549 cells after 72 hrs by MTT assay; assay type: functional, cell-based; details: A549, 72 h
[28] = system: DU-145; assay: Antiproliferative activity against human DU145 cells after 72 hrs by MTT assay; assay type: functional, cell-based; details: DU-145, 72 h
[29] = system: HT-29; assay: Antiproliferative activity against human HT-29 cells after 72 hrs by MTT assay; assay type: functional, cell-based; details: HT-29, 72 h
[30] = system: A-431; assay: Antiproliferative activity against human A431 cells after 72 hrs by MTT assay; assay type: functional, cell-based; details: A-431, 72 h
[31] = system: PC-3; assay: Antiproliferative activity against human PC3 cells after 72 hrs by MTT assay; assay type: functional, cell-based; details: PC-3, 72 h
[32] = system: DU-145; assay: Growth inhibition of human DU145 cells assessed as inhibition of colony formation after 11 to 12 days by crystal violet staining based microscopic analysis; assay type: functional, cell-based
[33] = system: DU-145; assay: Cell cycle arrest in human DU145 cells assessed as accumulation in G0/G1 phase at 0.2 uM after 24 hrs by FACS flow cytometry; assay type: functional
[34] = system: DU-145; assay: Cell cycle arrest in human DU145 cells assessed as accumulation in S phase at 0.2 uM after 24 hrs by FACS flow cytometry; assay type: functional
[35] = system: DU-145; assay: Cell cycle arrest in human DU145 cells assessed as accumulation in G2/M phase at 0.2 uM after 24 hrs by FACS flow cytometry; assay type: functional
[36] = system: DU-145; assay: Cell cycle arrest in human DU145 cells assessed as accumulation in G0/G1 phase at 0.5 uM after 24 hrs by FACS flow cytometry; assay type: functional

Signal transducer and activator of transcription 3 (Homo sapiens), sequence (P40763 whole entry): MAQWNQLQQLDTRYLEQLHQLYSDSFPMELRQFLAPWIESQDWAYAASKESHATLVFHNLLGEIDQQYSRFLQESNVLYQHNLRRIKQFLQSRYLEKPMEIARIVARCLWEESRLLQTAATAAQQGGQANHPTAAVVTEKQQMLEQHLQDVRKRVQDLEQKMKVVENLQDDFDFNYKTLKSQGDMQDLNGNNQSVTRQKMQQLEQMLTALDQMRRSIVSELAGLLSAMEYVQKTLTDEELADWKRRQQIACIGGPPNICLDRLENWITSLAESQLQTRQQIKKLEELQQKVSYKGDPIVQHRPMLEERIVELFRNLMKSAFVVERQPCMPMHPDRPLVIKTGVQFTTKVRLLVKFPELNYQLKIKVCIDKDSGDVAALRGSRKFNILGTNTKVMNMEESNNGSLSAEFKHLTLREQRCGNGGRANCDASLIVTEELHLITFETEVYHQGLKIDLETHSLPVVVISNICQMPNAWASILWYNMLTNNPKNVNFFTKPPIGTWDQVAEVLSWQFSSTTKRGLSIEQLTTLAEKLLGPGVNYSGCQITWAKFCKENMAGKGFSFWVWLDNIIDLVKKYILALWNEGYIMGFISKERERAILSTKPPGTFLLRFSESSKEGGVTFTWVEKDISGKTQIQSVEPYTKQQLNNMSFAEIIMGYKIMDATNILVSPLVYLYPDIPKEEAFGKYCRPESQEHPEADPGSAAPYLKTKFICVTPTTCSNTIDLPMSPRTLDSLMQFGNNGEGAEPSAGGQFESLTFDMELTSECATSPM
Signal transducer and activator of transcription 5A (Homo sapiens), sequence (P42229 whole entry): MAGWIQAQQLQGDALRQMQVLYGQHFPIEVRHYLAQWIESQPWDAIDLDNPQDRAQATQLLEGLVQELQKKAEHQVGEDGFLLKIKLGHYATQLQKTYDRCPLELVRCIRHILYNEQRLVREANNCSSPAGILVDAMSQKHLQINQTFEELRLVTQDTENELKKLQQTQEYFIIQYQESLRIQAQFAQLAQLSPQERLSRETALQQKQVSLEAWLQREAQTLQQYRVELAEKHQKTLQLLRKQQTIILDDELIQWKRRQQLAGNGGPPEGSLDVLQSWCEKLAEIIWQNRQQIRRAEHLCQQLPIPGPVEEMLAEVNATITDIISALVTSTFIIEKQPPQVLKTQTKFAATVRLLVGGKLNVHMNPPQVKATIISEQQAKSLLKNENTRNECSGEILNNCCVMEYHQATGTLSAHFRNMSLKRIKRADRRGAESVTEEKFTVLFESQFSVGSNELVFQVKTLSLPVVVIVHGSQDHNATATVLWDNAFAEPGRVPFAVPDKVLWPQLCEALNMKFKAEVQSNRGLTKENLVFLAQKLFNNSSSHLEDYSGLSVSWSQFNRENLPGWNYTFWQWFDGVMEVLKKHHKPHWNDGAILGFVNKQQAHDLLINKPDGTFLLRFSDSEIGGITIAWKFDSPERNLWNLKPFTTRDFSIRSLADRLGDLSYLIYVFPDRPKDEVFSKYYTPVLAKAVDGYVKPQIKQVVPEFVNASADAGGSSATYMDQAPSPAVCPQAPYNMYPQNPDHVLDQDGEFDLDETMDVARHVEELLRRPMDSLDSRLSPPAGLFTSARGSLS
Signal transducer and activator of transcription 1-alpha/beta (Homo sapiens), sequence (P42224 whole entry): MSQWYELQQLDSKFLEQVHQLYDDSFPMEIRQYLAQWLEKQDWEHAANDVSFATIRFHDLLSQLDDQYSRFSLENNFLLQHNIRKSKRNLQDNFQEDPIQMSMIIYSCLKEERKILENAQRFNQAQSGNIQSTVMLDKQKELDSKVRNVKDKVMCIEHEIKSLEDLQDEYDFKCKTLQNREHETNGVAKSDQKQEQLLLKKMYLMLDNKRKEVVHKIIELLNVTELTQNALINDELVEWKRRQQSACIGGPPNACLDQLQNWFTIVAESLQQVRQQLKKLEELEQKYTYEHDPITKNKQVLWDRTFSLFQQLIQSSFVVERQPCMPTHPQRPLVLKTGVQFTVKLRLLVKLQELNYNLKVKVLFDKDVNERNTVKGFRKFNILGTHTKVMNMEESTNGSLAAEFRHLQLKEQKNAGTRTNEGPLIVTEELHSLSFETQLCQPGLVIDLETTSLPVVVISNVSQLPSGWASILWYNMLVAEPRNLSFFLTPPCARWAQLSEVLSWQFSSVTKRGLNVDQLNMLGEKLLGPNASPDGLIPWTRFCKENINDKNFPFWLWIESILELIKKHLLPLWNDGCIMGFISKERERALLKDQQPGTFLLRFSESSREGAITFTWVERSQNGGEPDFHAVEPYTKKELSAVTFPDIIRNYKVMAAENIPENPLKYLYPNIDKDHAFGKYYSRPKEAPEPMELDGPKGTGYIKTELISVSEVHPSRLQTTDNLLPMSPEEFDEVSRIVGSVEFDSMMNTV

O=C(Nc1ccc([N+](=O)[O-])cc1Cl)c1cc(Cl)ccc1O [NICLOSAMIDE]
inhibition [1]: Active | inhibition [2]: Dose-dependent effect | inhibition [3]: inactive | inhibition [4]: inactive | inhibition [5]: inactive | Activity [6]: inactive | Activity [7]: inactive | Activity [8]: inactive | Activity [9]: inactive | Activity [10]: inactive | Activity [11]: inactive | Activity [12]: inactive | Activity [13]: inactive | Activity [14]: inactive | Activity [15]: inactive | Activity [16]: inactive | Activity [17]: inactive | Activity [18]: inactive | Activity [19]: inactive | inhibition [20]: Active | inhibition [21]: Active | Activity [22]: Active | Activity [23]: Active | Activity [24]: Active | Activity [25]: Active | IC50 [26]: 1400 nM | IC50 [27]: 3000 nM | IC50 [28]: 700 nM | IC50 [29]: 7200 nM | IC50 [30]: 8800 nM | IC50 [31]: 11700 nM | IC50 [32]: 700 nM | Activity [33]: 48.4% | Activity [34]: 38.4% | Activity [35]: 13.11% | Activity [36]: 57.4%
